Test results taken from patent US20230203081A1, “LINCOSAMIDE ANTIBIOTICS AND USES THEREOF” (President and Fellows of Harvard College, priority 2020, published 2023).
Values after ≈ are worked out from the molar mass of the structure shown. Like-named read-outs stand apart in the source and are kept apart here.

How the values were obtained:
Format in all cases: cell-based
H. influenzae ATCC 49247 = experiment: MIC (broth microdilution or agar dilution, CLSI); conditions: Haemophilus influenzae, ATCC49247, read-out: MIC
Outline: (§1)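 Inoculum for broth microdilution was 5×10^5 CFU/mL final, prepared from overnight 35° C blood-agar subcultures (separate handling for streptococcal and anaerobic strains); MICs read by CLSI broth microdilution or agar dilution.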

E. coli ATCC 25922 = experiment: MIC (broth microdilution or agar dilution, CLSI); conditions: Escherichia coli, ATCC25922, read-out: MIC
Outline: as §1

E. faecalis ATCC 29212 = experiment: MIC (broth microdilution or agar dilution, CLSI); conditions: Enterococcus faecalis, read-out: MIC
Outline: as §1

E. coli MP-9 ΔTolC = experiment: MIC (broth microdilution or agar dilution, CLSI); conditions: Escherichia coli
Outline: as §1

S. pneumoniae ATCC 49619 = experiment: MIC (broth microdilution or agar dilution, CLSI); conditions: Streptococcus pneumoniae, read-out: MIC
Outline: as §1

S. pyogenes ATCC 19615 = experiment: MIC (broth microdilution or agar dilution, CLSI); conditions: Streptococcus pyogenes, read-out: MIC
Outline: as §1

S. aureus ATCC 29213 = experiment: MIC (broth microdilution or agar dilution, CLSI); conditions: Staphylococcus aureus, read-out: MIC
Outline: as §1

[1] = system: E. coli MP-74 LptD mutant; experiment: MIC (broth microdilution or agar dilution, CLSI); conditions: Escherichia coli
Outline: (§2)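 CLSI MIC, broth microdilution or agar dilution; compound 128-0.06 μg/mL, 2.5% DMSO final; triplicate. Anaerobes (e.g. clostridia) and streptococci run by specialized procedures. Other strains: overnight 35° C on blood agar, CaMHB, 0.5 McFarland, inoculum 5×10^5 CFU/mL.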

[2] = system: S. pneumoniae MMX 3028 cErmB; experiment: MIC (broth microdilution or agar dilution, CLSI); conditions: Streptococcus pneumoniae, MMX3028CERMB; S. pneumoniae MMX 3028 cErmB; read-out: MIC
Outline: as §1

[3] = system: S. pneumoniae MMX 3031 cMefA; experiment: MIC (broth microdilution or agar dilution, CLSI); conditions: Streptococcus pneumoniae, MMX3031CMEFA, S. pneumoniae MMX 3031 cMefA; read-out: MIC
Outline: as §1

[4] = system: S. pyogenes MMX 946; cErmB; experiment: MIC (broth microdilution or agar dilution, CLSI); conditions: Streptococcus pyogenes; S. pyogenes MMX 946; cErmB; read-out: MIC
Outline: as §1

S. aureus MMX 3035 cErmA = experiment: MIC (broth microdilution or agar dilution, CLSI); conditions: Staphylococcus aureus, MMX3035CERMA; S. aureus MMX 3035 cErmA; read-out: MIC
Outline: as §1

[5] = system: E. faecalis MMX 847; cErmB; experiment: MIC (broth microdilution or agar dilution, CLSI); conditions: Enterococcus faecalis; E. faecalis MMX 847; cErmB; read-out: MIC
Outline: as §1

S. aureus MP-549 msrA = experiment: microbe, parasite or virus in culture; conditions: Staphylococcus aureus, MP549MSRA
Outline: as §1

S. aureus BAA 977 iErmA = experiment: microbe, parasite or virus in culture; conditions: Staphylococcus aureus, BAA977
Outline: as §1

K. pneumoniae ATCC 10031 = experiment: MIC (broth microdilution or agar dilution, CLSI); conditions: Klebsiella pneumoniae, ATCC10031, K. pneumoniae HAV#008, ATCC 10031; read-out: MIC
Outline: as §1

E. coli LptD = experiment: MIC (broth microdilution or agar dilution, CLSI); conditions: Escherichia coli, E. coli HAV#040; LptD; read-out: MIC
Outline: as §1

E. coli ΔTolC = experiment: microbe, parasite or virus in culture; conditions: Escherichia coli, E. coli HAV#038; ΔTolC
Outline: as §1

C. difficile ATCC 700057 = experiment: MIC (broth microdilution or agar dilution, CLSI); conditions: Clostridioides difficile, ATCC700057; C. difficile HAV#011, ATCC 700057; read-out: MIC
Outline: as §2

B. fragilis ATCC 25285 = experiment: MIC (broth microdilution or agar dilution, CLSI); conditions: Bacteroides fragilis, ATCC25285, B. fragilis HAV#013, ATCC 25285; read-out: MIC
Outline: as §2

[6] = ATCC29212, E. faecalis ATCC 29212
[7] = ATCC49619, S. pneumoniae ATCC 49619
[8] = ATCC19615, S. pyogenes ATCC 19615
[9] = ATCC29213, S. aureus ATCC 29213

Row | Compound | MIC (H. influenzae ATCC 49247; H. influenzae ATCC 49247) | MIC (E. coli ATCC 25922; E. coli ATCC 25922) | MIC (E. faecalis ATCC 29212; [6]) | MIC (E. coli MP-9 ΔTolC) | MIC (S. pneumoniae ATCC 49619; [7]) | MIC (S. pyogenes ATCC 19615; [8]) | MIC (S. aureus ATCC 29213; [9]) | MIC [1] | also measured
1 | CSC1O[C@H]([C@H](NC(=O)[C@@H]2[C@@H]3OCC[C@@H](C4CCCCC4)C[C@H]3CN2C)[C@H](C)Cl)CC(O)[C@H]1O (stereo partly shown) [FSA-513002b] | 8 µg/mL (≈ 15.4 µM) | 128 µg/mL (≈ 247 µM) | 0.5 µg/mL (≈ 0.963 µM) | 8 µg/mL (≈ 15.4 µM) | 0.25 µg/mL (≈ 0.482 µM) | 0.25 µg/mL (≈ 0.482 µM) | 0.5 µg/mL (≈ 0.963 µM) | 16 µg/mL (≈ 30.8 µM) | –
2 | CSC1O[C@H]([C@H](NC(=O)[C@@H]2[C@@H]3OCC[C@H](CC(C)C)C[C@H]3CN2C)[C@H](C)Cl)CC(O)[C@H]1O (stereo partly shown) [FSA-513003a] | 2 µg/mL (≈ 4.06 µM) | 32 µg/mL (≈ 64.9 µM) | 0.12 µg/mL (≈ 0.243 µM) | 1 µg/mL (≈ 2.03 µM) | 0.06 µg/mL (≈ 0.122 µM) | 0.06 µg/mL (≈ 0.122 µM) | 0.12 µg/mL (≈ 0.243 µM) | 2 µg/mL (≈ 4.06 µM) | MIC [2]: 8 µg/mL (≈ 16.2 µM); MIC [3]: ≤ 0.06 µg/mL; MIC [4]: 8 µg/mL (≈ 16.2 µM); MIC (S. aureus MMX 3035 cErmA): 16 µg/mL (≈ 32.4 µM); MIC [5]: 8 µg/mL (≈ 16.2 µM); MIC (S. aureus MP-549 msrA; S. aureus MP-549 msrA): 0.12 µg/mL (≈ 0.243 µM); MIC (S. aureus BAA 977 iErmA): 0.12 µg/mL (≈ 0.243 µM)
3 | CSC1O[C@H]([C@H](NC(=O)[C@@H]2[C@@H]3OCC[C@H](C4CCCCC4)C[C@H]3CN2C)[C@H](C)Cl)CC(O)[C@H]1O (stereo partly shown) [FSA-513002a] | > 64 µg/mL | > 64 µg/mL | 2 µg/mL (≈ 3.85 µM) | 64 µg/mL (≈ 123 µM) | 0.5 µg/mL (≈ 0.963 µM) | 1 µg/mL (≈ 1.93 µM) | 1 µg/mL (≈ 1.93 µM) | 64 µg/mL (≈ 123 µM) | –
4 | CCN1CCN(c2cc3c(cc2F)c(=O)c(C(=O)O)cn3C2CC2)CC1 [Enrofloxacin] | – | – | – | – | – | – | – | – | MIC (H. influenzae ATCC 49247; H. influenzae HAV#007, ATCC 49247): ≤ 0.06 µg/mL; MIC (K. pneumoniae ATCC 10031): ≤ 0.06 µg/mL; MIC (E. coli ATCC 25922; E. coli HAV#006, ATCC 25922): ≤ 0.06 µg/mL; MIC (E. coli LptD): ≤ 0.06 µg/mL; MIC (E. faecalis ATCC 29212; ATCC29212, E. faecalis HAV#005, ATCC 29212): 0.5 µg/mL (≈ 1.39 µM); MIC (S. pneumoniae ATCC 49619; ATCC49619, S. pneumoniae HAV#003, ATCC 49619): 0.25 µg/mL (≈ 0.696 µM); MIC (S. pyogenes ATCC 19615; ATCC19615, S. pyogenes HAV#004, ATCC 19615): 0.25 µg/mL (≈ 0.696 µM); MIC (S. aureus ATCC 29213; ATCC29213, S. aureus HAV#001, ATCC 29213, MP-549): 0.125 µg/mL (≈ 0.348 µM); MIC (S. aureus MP-549 msrA; S. aureus HAV#032, MP-549, MSR(A), read-out: MIC): 0.5 µg/mL (≈ 1.39 µM); MIC (E. coli ΔTolC): ≤ 0.06 µg/mL; MIC (C. difficile ATCC 700057): 32 µg/mL (≈ 89 µM); MIC (B. fragilis ATCC 25285): 2 µg/mL (≈ 5.56 µM)
